# Results as given in patent US10912815B2, “Inhibitors of mitochondrial fission and methods of use thereof” (The Board of Trustees of the Leland Stanford Junior …, priority 2011, dated 2021).
# No end group written: not given here.
# How the values were obtained:
# [1] = biological target: T1, dynamin-1 (Homo sapiens, UniProt Q05193); experiment: In vitro GTPase assay, recombinant dynamin-1; type: biochemical; details: recombinant dynamin-1 25 ng, FIG. 2B
# T1 sequence (Q05193 1-864): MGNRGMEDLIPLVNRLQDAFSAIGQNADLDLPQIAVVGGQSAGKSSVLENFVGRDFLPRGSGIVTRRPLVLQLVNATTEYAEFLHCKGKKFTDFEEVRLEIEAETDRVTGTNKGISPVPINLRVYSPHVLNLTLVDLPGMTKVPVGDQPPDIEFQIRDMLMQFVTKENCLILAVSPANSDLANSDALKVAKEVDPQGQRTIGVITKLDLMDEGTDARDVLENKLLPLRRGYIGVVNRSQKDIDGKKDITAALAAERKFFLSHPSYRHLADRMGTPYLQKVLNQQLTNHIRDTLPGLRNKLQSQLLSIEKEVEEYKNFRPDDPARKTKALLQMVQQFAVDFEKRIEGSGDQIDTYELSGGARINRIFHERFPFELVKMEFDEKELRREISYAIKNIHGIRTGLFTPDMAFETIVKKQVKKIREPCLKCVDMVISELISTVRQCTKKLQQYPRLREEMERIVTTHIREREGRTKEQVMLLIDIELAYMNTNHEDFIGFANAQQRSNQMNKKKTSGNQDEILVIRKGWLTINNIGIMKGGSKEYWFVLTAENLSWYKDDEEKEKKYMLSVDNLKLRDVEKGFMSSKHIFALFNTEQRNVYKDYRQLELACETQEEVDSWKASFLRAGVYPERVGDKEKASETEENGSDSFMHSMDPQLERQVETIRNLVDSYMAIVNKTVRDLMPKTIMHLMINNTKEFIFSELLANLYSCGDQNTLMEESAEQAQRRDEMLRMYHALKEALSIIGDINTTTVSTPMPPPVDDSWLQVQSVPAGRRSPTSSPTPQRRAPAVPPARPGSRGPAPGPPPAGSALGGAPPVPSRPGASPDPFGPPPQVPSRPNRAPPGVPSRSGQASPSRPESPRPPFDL
# Protocol: First, mitochondrial fission inhibitor constructs were tested to determine what, if any, effects each peptide had on enzyme (GTPase) activity. Recombinant protein Drp1, Mfn1, OPA1 or dynamin-1 (25 ng) was incubated with the indicated modulator peptides for 30 min. GTPase activity was assayed in vitro using a GTPase assay kit (Innova Biosciences, Littleton, USA, or Novus Biologicals, Littleton, Colo.) according to manufacturer's instructions.
# [2] = biological target: Drp1/Fis1 interaction (Homo sapiens, UniProt O00429); experiment: Direct binding between recombinant Drp1 and Fis1 (immunoprecipitation); details: peptides 1 μM each, Drp1 50 ng, Fis1 50 ng, FIG. 2D
# Protocol: In another set of experiments, Drp1 was incubated with Fis1 and the complex was immunoprecipitated using anti-Drp1 antibody followed by immunoblotting with anti-Fis1 antibody. For direct binding between Drp1 and Fis1, recombinant Drp1 (50 ng) and Fis1 (50 ng) were incubated in PBS containing 1 mM DSP for 30 min in the presence or absence of Drp1/Fis1 peptides (1 μM each) or control peptide TAT. After termination of the reaction by 50 mM Tris-HCl, pH 7.5, reaction mixtures were subjected to immunoprecipitation with anti-Fis1 antibody in the presence of 1% Triton X-100. Immunoprecipitates were washed with PBS containing 1% Triton X-100 and analyzed by SDS-PAGE and subsequent immunoblotting with antibodies to Fis1 and Drp1.
# [3] = tested on: SH-SY5Y cells; experiment: Mitochondrial superoxide production in SH-SY5Y cells (MITOSOX red); type: cell-based, human; details: peptide 1 μM, MPP+ 2 mM 2 hrs, FIG. 6A, FIG. 7
# Protocol: The effects of MPP+ or CCCP on translocation of Drp1 in the absence and presence of P110 was measured using confocal microscopy. Cultured SH-SY5Y cells in black 96-well plate were treated with Drp1 peptide inhibitor P110 (1 μM) 30 min prior to treatment of MPP+ (2 mM) or CCCP (5 uM). After 2 hrs of treatment, cells were stained with MITOSOX™ (red mitochondrial superoxide indicator) (5 uM, for 10 min, mitochondrial ROS) or TMRM (0.5 uM, for 20 min, MMP) at 37° C. For total ROS detection, cells were treated with MPP+ or CCCP for 24 hrs. ROS level was measured by CM-H2DCFDA (1 μM for 30 min, Invitrogen). Cells were washed with PBS for three times. The detection was performed in a fluorescence microplate reader (Tecan, Infinite M1000) according to manufacturer's instructions. Measurements were normalized to the cell number counted using Hoechst staining.
# SH-SY5Y cells were treated with P110 (1 μM) followed by incubation of MPP+ (2 mM) for 2 hrs. Mitochondrial superoxide production was determined using the mitochondrial superoxide indicator, MITOSOX™ red (red mitochondrial superoxide indicator). Nuclei were stained with Hoechst (blue). This experiment included the analysis of P110 alanine-scan analogs, further determine the contribution of each of the amino acids of the P110 fission inhibitor peptide sequence on the bioactivity of the peptide.
# [4] = tested on: SH-SY5Y cells; experiment: Apoptosis markers on mitochondria of SH-SY5Y cells (western blot: NT-Bax, cytochrome c, Bcl-2); type: cell-based, human; details: MPP+ 2 mM 1 hour, FIG. 9A
# Protocol: SH-SY5Y neuronal cells were treated with P110 followed by the exposure to MPP+(2 mM for 1 hour). Active form of Bax (NT-Bax), cytochrome c and Bcl-2 on the mitochondria were determined by western blot analysis with the indicated antibodies. Shown are representative data of three independent experiments. Quantification of the data are provided as mean±SE of three independent experiments.
# [5] = tested on: Primary rat dopaminergic neurons; experiment: Mitochondrial fragmentation in primary dopaminergic neurons exposed to MPP+; type: cell-based; details: P110 1 μM, MPP+ 1 μM, 15 hrs, FIG. 10B
# Protocol: Primary rat dopaminergic neurons (cultured for 6 days) were treated without or with P110 (1 μM) followed by treatment with or without MPP+(1 μM). Two hrs following MPP+ treatment, the cells were stained with MITOSOX™ red (to measure mitochondrial superoxide production) and anti-TH antibody (a marker of dopaminergic neurons). Fifteen hrs after MPP+ treatment, cells were stained with anti-TH antibody and anti-Tom20 antibody (a marker of mitochondria).
# Chain of Drp1/Fis1 interaction (O00429 1-710 isoform O00429-3): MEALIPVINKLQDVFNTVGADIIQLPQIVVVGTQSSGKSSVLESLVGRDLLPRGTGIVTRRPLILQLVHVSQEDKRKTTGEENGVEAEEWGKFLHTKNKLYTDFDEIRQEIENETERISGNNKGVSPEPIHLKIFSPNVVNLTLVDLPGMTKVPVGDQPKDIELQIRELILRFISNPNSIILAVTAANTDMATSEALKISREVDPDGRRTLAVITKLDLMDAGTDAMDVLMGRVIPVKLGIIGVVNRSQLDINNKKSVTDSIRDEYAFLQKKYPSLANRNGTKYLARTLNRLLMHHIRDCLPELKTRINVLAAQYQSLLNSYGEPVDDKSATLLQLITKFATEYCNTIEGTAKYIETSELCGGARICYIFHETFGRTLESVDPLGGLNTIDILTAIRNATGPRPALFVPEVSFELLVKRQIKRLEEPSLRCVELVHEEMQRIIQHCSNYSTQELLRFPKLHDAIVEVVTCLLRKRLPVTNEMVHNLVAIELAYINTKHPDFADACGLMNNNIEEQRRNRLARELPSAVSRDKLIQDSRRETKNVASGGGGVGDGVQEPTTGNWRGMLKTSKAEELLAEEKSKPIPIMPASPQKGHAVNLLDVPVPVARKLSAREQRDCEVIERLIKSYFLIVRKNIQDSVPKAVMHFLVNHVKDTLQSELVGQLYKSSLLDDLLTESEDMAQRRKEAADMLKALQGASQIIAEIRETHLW
sequence,measurement,setting,value
"RRRQRRKKRGYGGDLLPRGS (RRRQRRKKRGYGGDLLPRGS-NH2) [P110, TAT47-57 carrier, GG linker, Drp1 region 110 (GTPase domain) peptide DLLPRGS; C-terminus C(O)-NH2]",effect on GTPase activity of dynamin-1,[1],no effects
same,"Drp1-Fis1 interaction, recombinant proteins",[2],blocked
same,MPP+-induced production of mitochondrial superoxide,[3],abolished
same,Bcl-2 levels on the mitochondria,[4],improved decreased Bcl-2 levels
same,accumulation of active Bax on the mitochondria,[4],greatly reduced accumulation of active Bax
same,release of cytochrome c from the mitochondria,[4],blocked the release of cytochrome c
same,mitochondrial fragmentation,[5],reduced mitochondrial fragmentation
